Laboratory results reported in patent US8367648B2, “Substituted 16,17-annellated steroid compounds for use in womens healthcare” (MSD OSS B.V., priority 2009, dated 2013).

Tested on: vaginal tissue
Assay: Allen-Doisy (rat)
Assay type: in vivo

Structure (SMILES): CCC[C@@H]1Cc2cc(O)ccc2[C@H]2CC[C@@]3(C)[C@@H](C[C@H]4CCC(=O)C[C@]43O)[C@H]12 [Compound 10, (7α,16β,17α)-3,17-dihydroxy-7-propyl-16,24-cyclo-19,21-dinorchola-1,3,5(10)-trien-22-one]
- Allen-Doisy (rat) MAD p.o.: 0.15 mg/kg · day
